Source: PubChem BioAssay (NCI)
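Briefly, cells in 96-well plates were exposed to five compound concentrations for 48 h, and endpoints were estimated by linear interpolation. Definition used: TGI = concentration required for complete inhibition of growth.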 Square brackets hold non-standard residues; d marks the D form. Peptide text beside a SMILES is read from it. Phe(4-NO2) = N[CH](Cc1ccc([N+](=O)[O-])cc1)C(=O)O

Assays:
Assay in all cases: NCI anticancer screen, dose series, 48 h
CCRF-CEM leukemia = system: CCRF-CEM leukemia
DU-145 prostate = system: DU-145 prostate
HT29 colon = system: HT29 colon
K-562 leukemia = system: K-562 leukemia
MCF7 breast = system: MCF7 breast
NCI/ADR-RES ovarian = system: NCI/ADR-RES ovarian
OVCAR-4 ovarian = system: OVCAR-4 ovarian
OVCAR-8 ovarian = system: OVCAR-8 ovarian
RPMI-8226 leukemia = system: RPMI-8226 leukemia
SF-539 CNS = system: SF-539 CNS
SK-MEL-2 melanoma = system: SK-MEL-2 melanoma
SW-620 colon = system: SW-620 colon
UACC-257 melanoma = system: UACC-257 melanoma
UACC-62 melanoma = system: UACC-62 melanoma

| SMILES | TGI (CCRF-CEM leukemia) [µM] | TGI (DU-145 prostate) [µM] | TGI (HT29 colon) [µM] | TGI (K-562 leukemia) [µM] | TGI (MCF7 breast) [µM] | TGI (NCI/ADR-RES ovarian) [µM] | TGI (OVCAR-4 ovarian) [µM] | TGI (OVCAR-8 ovarian) [µM] | TGI (RPMI-8226 leukemia) [µM] | TGI (SF-539 CNS) [µM] | TGI (SK-MEL-2 melanoma) [µM] | TGI (SW-620 colon) [µM] | TGI (UACC-257 melanoma) [µM] | TGI (UACC-62 melanoma) [µM] |
| --- | --- | --- | --- | --- | --- | --- | --- | --- | --- | --- | --- | --- | --- | --- |
| COc1ccc(Br)c(C=Nc2cccc3cc(OC)c(OC)cc23)c1 | > 40.5 | > 100 | > 71.8 | > 39.6 | > 100 | > 77.8 | > 100 | > 59.9 | > 46.3 | 12.4 | > 100 | 51.1 | > 100 | > 83 |
| COC(=O)CCC(NC(=O)C(CCC(=O)OC)NC(=O)C(CCC(=O)OC)NC(=O)C(CCC(=O)OC)NC(=O)C(CCC(=O)OC)NC(=O)C(Cc1ccc([N+](=O)[O-])cc1)NC(=O)C(CCC(=O)OC)NC(=O)C(CCC(=O)OC)NC(=O)C(CCC(=O)OC)NC(=O)C(CCC(=O)OC)NC(=O)C(CCC(=O)OC)NC(C)=O)C(N)=O (configuration not stated) (Ac-E(OMe)E(OMe)E(OMe)E(OMe)E(OMe)[Phe(4-NO2)]E(OMe)E(OMe)E(OMe)E(OMe)E(OMe)-NH2; configuration not given here) | > 100 | > 100 | > 100 |  | > 100 | > 100 | > 100 | > 100 | > 100 |  | > 100 | > 100 | > 100 |  |
| ClCCc1ccccc1CC1=NCCc2ccccc21 | > 100 | > 100 | 46.3 | > 100 | > 100 | 75.6 | > 100 | > 100 | 45.9 | > 100 | 39.1 | > 100 | > 100 | 98.9 |
| CC(C)C[C@H](NC(=O)CCc1cccc2ccccc12)B(O)O | […] | > 65.6 | 6.27 | 21.4 | > 52 | 11.7 | 29 | 19.6 | 3.95 | 1.21 | 6.74 | 3.26 | 3.91 | 5.59 |
| C=C(C1=CC(=O)C(C)(C)O1)[C@@H]1CC=C([C@@H]2CC[C@H]3[C@@]2(C)CC[C@H]2C(C)(C)C(=O)[C@H](OC(=O)CC(C)(O)CC(=O)O)C[C@]32C)[C@H](O)O1 (some centres not stated) | 6.12 | 45.6 | 34.4 | > 75 | 20.9 | 51.3 |  | 29.1 | 5.24 | 24.7 | 26.7 | 25.4 | 35.6 | 23.5 |
| CCOC(OCC)[C@H](N)[C@@H](O)[C@@H](O)[C@H]1COC(C)(C)O1 | > 100 | > 100 | > 100 | > 100 | > 100 | > 100 | > 100 | > 100 | > 100 |  | > 100 | > 100 | > 100 | > 100 |
| Nc1ncnc2c1cnn2COCC(O)CO (configuration not stated) | > 100 | > 100 | > 100 | > 100 | > 100 | > 100 | > 100 | > 100 | > 100 | > 100 | > 100 | > 100 | > 100 | > 100 |
| Nc1nc(Cl)c(C=O)c(NCC2(CO)CCC2)n1 | 34.1 | > 100 | > 100 | 31.7 | > 100 | > 100 | 32.9 | 33.8 | > 100 | > 100 | 28.3 | > 100 | > 100 | 35.1 |
